Assay results published in PubChem BioAssay AID248 (DTP/NCI, 2004).
Several values for one entry are separate records, joined by “and”; a condition that tells them apart may be missing. Equal entries are not always repeated. Inconclusive results and toxic doses are left out.

Test system: L1210 leukemia ip in BDF1 mice, survival T/C
Assay: NCI In Vivo Anticancer Drug Screen. Data for tumor model L1210 Leukemia (intraperitoneal) in B6D2F1 (BDF1) mice
Conditions: endpoint: mean survival time, higher = longer survival
Summary of the method: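 Transplantable tumor model; survival measured in treated vs vehicle control mice. Value = treated/control.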

[1] = dose: 100.0 mg/kg/injection, schedule: Q01DX009 (ip), vehicle: saline with Tween-80
[2] = dose: 100.0 mg/kg/injection, schedule: Q04DX003 (ip), vehicle: saline with Tween-80
[3] = dose: 200.0 mg/kg/injection, schedule: Q01DX009 (ip), vehicle: saline with Tween-80
[4] = dose: 200.0 mg/kg/injection, schedule: Q04DX003 (ip), vehicle: saline with Tween-80
[5] = dose: 100.0 mg/kg/injection, schedule: Q04DX003 (ip), vehicle: saline
[6] = dose: 200.0 mg/kg/injection, schedule: Q04DX003 (ip), vehicle: saline
[7] = dose: 400.0 mg/kg/injection, schedule: Q04DX003 (ip), vehicle: saline
[8] = dose: 100.0 mg/kg/injection, schedule: Q01DX009 (ip), vehicle: Klucel (hydroxypropylcellulose) (HPC)
[9] = dose: 200.0 mg/kg/injection, schedule: Q01DX009 (ip), vehicle: Klucel (hydroxypropylcellulose) (HPC)
[10] = dose: 400.0 mg/kg/injection, schedule: Q01DX009 (ip), vehicle: Klucel (hydroxypropylcellulose) (HPC)
[11] = dose: 100.0 mg/kg/injection, schedule: Q01DX001 (ip), vehicle: Klucel (hydroxypropylcellulose) (HPC)
[12] = dose: 200.0 mg/kg/injection, schedule: Q01DX001 (ip), vehicle: Klucel (hydroxypropylcellulose) (HPC)

SMILES: C(=C1c2ccccc2-c2ccccc21)c1ccccc1
- T/C [1]: 100 % of control
- T/C [2]: 100 % of control
- T/C [3]: 95 % of control
- T/C [4]: 100 % of control
- T/C (dose: 400.0 mg/kg/injection, schedule: Q01DX009 (ip), vehicle: saline with Tween-80): 91 % of control
- T/C (dose: 400.0 mg/kg/injection, schedule: Q04DX003 (ip), vehicle: saline with Tween-80): 92 % of control

SMILES: NC(=O)NOCc1ccc([N+](=O)[O-])cc1
- T/C [5]: 98 % of control
- T/C [6]: 101 % of control
- T/C [7]: 115 % of control

SMILES: Nc1ccc2c(c1)-c1ccc(F)cc1C2
- T/C (dose: 100.0 mg/kg/injection, schedule: Q01DX001 (ip), vehicle: carboxymethylcellulose (CMC)): 89 % of control
- T/C (dose: 200.0 mg/kg/injection, schedule: Q01DX001 (ip), vehicle: carboxymethylcellulose (CMC)): 100 % of control
- T/C (dose: 400.0 mg/kg/injection, schedule: Q01DX001 (ip), vehicle: carboxymethylcellulose (CMC)): 94 % of control

SMILES: CC(=O)c1cccc(NC(=O)Oc2cc(=O)oc3ccccc23)c1
- T/C (dose: 25.0 mg/kg/injection, schedule: Q01DX009 (ip), vehicle: Klucel (hydroxypropylcellulose) (HPC)): 92 % of control
- T/C (dose: 50.0 mg/kg/injection, schedule: Q01DX009 (ip), vehicle: Klucel (hydroxypropylcellulose) (HPC)): 101 % of control
- T/C [8]: 101 % of control

SMILES: CC(=O)/C=C(/C)O
- T/C [5]: 100 % of control
- T/C [6]: 118 % of control

SMILES: O=S1(=O)Cc2ccccc2-c2ccccc2C1Cl (stereo unspecified)
- T/C (dose: 50.0 mg/kg/injection, schedule: Q04DX002 (ip), vehicle: Klucel (hydroxypropylcellulose) (HPC)): 100 % of control
- T/C [8]: 98 % of control
- T/C (dose: 100.0 mg/kg/injection, schedule: Q04DX002 (ip), vehicle: Klucel (hydroxypropylcellulose) (HPC)): 100 % of control
- T/C [9]: 100 % of control
- T/C (dose: 200.0 mg/kg/injection, schedule: Q04DX002 (ip), vehicle: Klucel (hydroxypropylcellulose) (HPC)): 97 % of control
- T/C [10]: 96 % of control

SMILES: NC(N)=N/N=C\c1ccc2c(c1)OCO2
- T/C (dose: 15.0 mg/kg/injection, schedule: Q01DX Z (ip), vehicle: saline): 98 % of control
- T/C (dose: 30.0 mg/kg/injection, schedule: Q01DX Z (ip), vehicle: saline): 88 % of control
- T/C (dose: 30.0 mg/kg/injection, schedule: Q01DX Z (oral), vehicle: saline): 92 % of control
- T/C (dose: 60.0 mg/kg/injection, schedule: Q01DX Z (ip), vehicle: saline): 92 % of control
- T/C (dose: 60.0 mg/kg/injection, schedule: Q01DX Z (oral), vehicle: saline): 94 % of control
- T/C (dose: 120.0 mg/kg/injection, schedule: Q01DX Z (oral), vehicle: saline): 97 % of control

SMILES: O=NN(CCCl)C(=O)Nc1ccc(Cn2ccc(=O)[nH]c2=O)cc1
- T/C (dose: 18.0 mg/kg/injection, schedule: Q01DX001 (ip), vehicle: carboxymethylcellulose (CMC)): 164 % of control
- T/C (dose: 23.0 mg/kg/injection, schedule: Q01DX001 (ip), vehicle: carboxymethylcellulose (CMC)): 185 % of control
- T/C (dose: 26.0 mg/kg/injection, schedule: Q01DX001 (ip), vehicle: carboxymethylcellulose (CMC)): 152 % of control
- T/C (dose: 31.0 mg/kg/injection, schedule: Q01DX001 (ip), vehicle: carboxymethylcellulose (CMC)): 189 % of control
- T/C (dose: 40.0 mg/kg/injection, schedule: Q01DX001 (ip), vehicle: carboxymethylcellulose (CMC)): 178 % of control
- T/C (dose: 46.0 mg/kg/injection, schedule: Q01DX001 (ip), vehicle: carboxymethylcellulose (CMC)): 179 % of control
- T/C (dose: 60.0 mg/kg/injection, schedule: Q01DX001 (ip), vehicle: carboxymethylcellulose (CMC)): 200 % of control
- T/C (dose: 62.0 mg/kg/injection, schedule: Q01DX001 (ip), vehicle: carboxymethylcellulose (CMC)): 167 % of control
- T/C (dose: 90.0 mg/kg/injection, schedule: Q01DX001 (ip), vehicle: carboxymethylcellulose (CMC)): 207 % of control
- T/C (dose: 125.0 mg/kg/injection, schedule: Q01DX001 (ip), vehicle: carboxymethylcellulose (CMC)): 107 % of control
- T/C (dose: 187.0 mg/kg/injection, schedule: Q01DX001 (ip), vehicle: carboxymethylcellulose (CMC)): 93 % of control

SMILES: CC(C)(C)c1ccc(OC(=O)Nc2ccc(Cl)cc2[N+](=O)[O-])c(Br)c1
- T/C [8]: 98 % of control
- T/C [9]: 93 % of control
- T/C [10]: 98 % of control

SMILES: CCOC(=O)c1cc(Br)cc(Br)c1N=NN(C)C
- T/C (dose: 50.0 mg/kg/injection, schedule: Q01DX009 (ip), vehicle: saline with Tween-80): 105 % of control
- T/C [1]: 113 % of control
- T/C [3]: 105 % of control

SMILES: CCCCCCCCCCN(CCCCCCCCCC)C(C)C(=O)c1ccc2cc(Br)c3ccccc3c2c1 (stereo unspecified)
- T/C (dose: 55.0 mg/kg/injection, schedule: Q01DX Z (ip), vehicle: methylcellulose (MC)): 93 % of control
- T/C (dose: 83.0 mg/kg/injection, schedule: Q01DX Z (ip), vehicle: methylcellulose (MC)): 100 % of control
- T/C (dose: 125.0 mg/kg/injection, schedule: Q01DX Z (ip), vehicle: methylcellulose (MC)): 93 % of control

SMILES: Nc1ccc(C(O)(C(F)(F)F)C(F)(F)F)c(C(=O)O)c1
- T/C (dose: 100.0 mg/kg/injection, schedule: Q04DX003 (ip), vehicle: other): 101 % of control
- T/C (dose: 200.0 mg/kg/injection, schedule: Q04DX003 (ip), vehicle: other): 101 % of control
- T/C (dose: 400.0 mg/kg/injection, schedule: Q04DX003 (ip), vehicle: other): 101 % of control

SMILES: CC(C)(C)N=O
- T/C [11]: 103 % of control
- T/C [12]: 114 % of control

SMILES: O=C(O)CP(=O)(O)O
- T/C (dose: 75.0 mg/kg/injection, schedule: Q04DX003 (ip), vehicle: saline): 102 % of control
- T/C (dose: 150.0 mg/kg/injection, schedule: Q04DX003 (ip), vehicle: saline): 102 % of control
- T/C (dose: 300.0 mg/kg/injection, schedule: Q04DX003 (ip), vehicle: saline): 93 % of control

SMILES: Nc1n[nH]c(=O)[nH]1
- T/C (dose: 44.0 mg/kg/injection, schedule: Q03HX024 (ip), vehicle: saline): 108 % of control
- T/C (dose: 67.0 mg/kg/injection, schedule: Q03HX024 (ip), vehicle: saline): 107 % of control
- T/C (dose: 100.0 mg/kg/injection, schedule: Q01DX009 (ip), vehicle: saline): 115 % of control
- T/C (dose: 100.0 mg/kg/injection, schedule: Q03HX024 (ip), vehicle: saline): 112 % of control
- T/C (dose: 177.0 mg/kg/injection, schedule: Q01DX009 (ip), vehicle: saline): 120 % of control
- T/C (dose: 200.0 mg/kg/injection, schedule: Q01DX009 (ip), vehicle: saline): 121 % of control
- T/C (dose: 225.0 mg/kg/injection, schedule: Q03HX024 (ip), vehicle: saline): 153 % of control
- T/C (dose: 266.0 mg/kg/injection, schedule: Q01DX009 (ip), vehicle: saline): 180 % of control
- T/C (dose: 266.0 mg/kg/injection, schedule: Q04DX003 (ip), vehicle: saline): 104 % of control
- T/C (dose: 400.0 mg/kg/injection, schedule: Q01DX009 (ip), vehicle: saline): 185 % of control
- T/C [7]: 113 % of control
- T/C (dose: 600.0 mg/kg/injection, schedule: Q01DX009 (ip), vehicle: saline): 164 % of control and 186 % of control
- T/C (dose: 600.0 mg/kg/injection, schedule: Q04DX003 (ip), vehicle: saline): 118 % of control

SMILES: Clc1ccc2c(c1)C(N1CCOCC1)c1cc(Cl)cc(Cl)c1-2 (stereo unspecified)
- T/C [11]: 102 % of control
- T/C (dose: 100.0 mg/kg/injection, schedule: Q04DX003 (ip), vehicle: Klucel (hydroxypropylcellulose) (HPC)): 98 % of control
- T/C [12]: 92 % of control
- T/C (dose: 200.0 mg/kg/injection, schedule: Q04DX003 (ip), vehicle: Klucel (hydroxypropylcellulose) (HPC)): 96 % of control
- T/C (dose: 400.0 mg/kg/injection, schedule: Q01DX001 (ip), vehicle: Klucel (hydroxypropylcellulose) (HPC)): 96 % of control
- T/C (dose: 400.0 mg/kg/injection, schedule: Q04DX003 (ip), vehicle: Klucel (hydroxypropylcellulose) (HPC)): 94 % of control

SMILES: O=C1c2ccccc2C(=O)N1CN1C(=O)c2ccccc2C1=O
- T/C [2]: 88 % of control
- T/C [4]: 91 % of control

SMILES: CC(=O)NC(N)=NCCCC(N)C(=O)O (stereo unspecified)
- T/C (dose: 75.0 mg/kg/injection, schedule: Q04DX003 (ip), vehicle: Klucel (hydroxypropylcellulose) (HPC)): 91 % of control
- T/C (dose: 150.0 mg/kg/injection, schedule: Q04DX003 (ip), vehicle: Klucel (hydroxypropylcellulose) (HPC)): 94 % of control
- T/C (dose: 300.0 mg/kg/injection, schedule: Q04DX003 (ip), vehicle: Klucel (hydroxypropylcellulose) (HPC)): 94 % of control
